From patent publication US8241680B2, “Nutraceutical product containing anatabine and yerba maté” (priority 2010, dated 2012) come the findings set out here.

A short description of series [1]: Stability analysis of anatabine base with and without BHT as a preservative. In kind it is physicochemical. On the procedure:
See, for example, Tables 3 and 4 in Examples 4 and 5, respectively. Purity of the anatabine may be retained for extended periods of time. […] Further, anatabine remains stable when stored at a variety of temperatures. For example, the anatabine retains the indicated purity when stored at −20° C. to −10° C., −20° C. to 0° C., −10° C. to 0° C., 0° C. to 4° C., 2° C. to 8° C., 5° C. to 10° C., 10° C. to 15° C., 15° C. to 25° C., or 25° C. to 28° C. Stability is determined by any suitable art-recognized method. For example, anatabine stability may be monitored by high performance liquid chromatography (HPLC), liquid chromatography-mass spectroscopy (LC-MS), or nuclear magnetic resonance (NMR).
Anatabine base stability was analyzed with and without BHT (3,5-di-tert-butyl-4-hydroxytoluene). The initial purity of BHT-free anatabine base was 94.95%. The initial purity of anatabine base with BHT was 94.87%.

Series [2] in a line: Stability analysis of Formula I (purity by HPLC on storage). In kind it is physicochemical. An excerpt:
Several batches of Formula I produced by reacting benzophenoneimine with aminomethylpyridine in the absence of benzene were stored refrigerated and also at room temperature.

The structures appear in SMILES notation.

Turning to `C1=CCC(c2cccnc2)NC1` (stereo not shown) [anatabine base, anatabine], the Initial purity was determined as 94.95% in series [1] (BHT-free) and 94.87% in series [1] (with BHT). Moreover, the “Purity (%) (with BHT)” value in series [1] (day 1, 2-8° C., with BHT) is 93.26%; in series [1] (day 1, 25-28° C., with BHT), 93.27%; in series [1] (day 1, −20° C., with BHT), 94.26%; in series [1] (day 2, 2-8° C., with BHT), 94.83%; in series [1] (day 2, 25-28° C., with BHT), 92.73%; in series [1] (day 2, −20° C., with BHT), 94.73%. Moreover, the “Purity (%) (with BHT)” value in series [1] (day 3, 2-8° C., with BHT) is on record as 94.26%; in series [1] (day 3, 25-28° C., with BHT) it was 87.44%; in series [1] (day 3, −20° C., with BHT) it was 94.62%; in series [1] (day 12, 2-8° C., with BHT), 94.18%; in series [1] (day 12, 25-28° C., with BHT) it was 85.10%; in series [1] (day 12, −20° C., with BHT) it was 94.74%. For the same compound, the “Purity (%) (without BHT)” value stood at 94.44% in series [1] (day 1, 2-8° C.); 89.63% in series [1] (day 1, 25-28° C.); 93.90% in series [1] (day 1, −20° C.); 94.05% in series [1] (day 2, 2-8° C.); 87.59% in series [1] (day 2, 25-28° C.); 94.62% in series [1] (day 2, −20° C.). In addition, the “Purity (%) (without BHT)” value is on record as 91.65% in series [1] (day 3, 2-8° C.); 80.74% in series [1] (day 3, 25-28° C.); 93.87% in series [1] (day 3, −20° C.); 90.12% in series [1] (day 12, 2-8° C.); 79.59% in series [1] (day 12, 25-28° C.); 94.01% in series [1] (day 12, −20° C.).

Consider `c1ccc(C(=NCc2cccnc2)c2ccccc2)cc1` [Formula I, benzylhydrylidene-pyridin-3-ylmethyl-amine], for which the “Purity (%) (stored at 2-8° C.)” value in series [2] (day 1, 2-8° C.) was 88.61%; in series [2] (day 2, 2-8° C.), 88.83%; in series [2] (day 3, 2-8° C.) it was 88.30%; in series [2] (day 6, 2-8° C.) it was 88.83%; in series [2] (day 12, 2-8° C.), 88.75%; in series [2] (day 18, 2-8° C.), 88.46%. Also, the “Purity (%) (stored at 25-28° C.)” value is 88.93% in series [2] (day 1, 25-28° C.); 85.49% in series [2] (day 2, 25-28° C.); 88.02% in series [2] (day 3, 25-28° C.); 86.62% in series [2] (day 6, 25-28° C.); 87.47% in series [2] (day 12, 25-28° C.); 87.25% in series [2] (day 18, 25-28° C.). The Purity on storage result in series [2] (refrigerated) was “constant”. In addition, in series [2] (room temperature), the “Deviation of purity on storage” value was 1-2%.
